Results reported in patent US8338454B2, “Nitrile derivatives and their pharmaceutical use and compositions” (Cellceutix Corporation, priority 2009, dated 2012).
Where two headings read alike, the source gives them in different places.

Experiments:
[1] = tested on: NCI-H1975 multi-drug resistant human lung carcinoma; assay: Xenograft efficacy in nude mice; type: in vivo
Procedure: (§1) The cells were cultured in 10% FBS RPMI medium. The cells were obtained at passage 5 for further expansion for this efficacy study. Nude mice (Nu/Nu), both male (20 to 24 g) and female (19 to 22 g), were purchased at 6 to 8 weeks old from Charles River Laboratories. These mice were naïve at the beginning of the study and were identified by ear punching. The mice were left for five days to become acclimated to their new environment. Mice were implanted with human tumor cells in a 50:50 mix of RPMI:Matrigel subcutaneously in the right flank of each mouse. Dosing began when tumors reached an average volume of 100 mm^3.
(§2) The mice were observed daily for any adverse affects. Mice body weights were taken prior to treatment and every other day during and post treatment. If an animal became unwell, any treatment of that animal was suspended. If there was no recovery, the animal was sacrificed. […] Mice tumor size measurements were taken prior to treatment and every other day during and post treatment. The same scientist was responsible for taking the tumor measurements throughout the study.
Nude mice were implanted with 5×10^6 tumor cells in a 50:50 mix of RPMI:Matrigel subcutaneously in the right flank of each mouse. Dosing began when tumors reached an average volume of 100 mm^3, usually reached by day 14 post implant, and was carried out for 8 days. A necropsy was performed 41 days after treatment ended.
(§3) The dosing procedure began the day the mice were randomized and grouped. The dose was administered, as discussed in the following paragraph, on days 7, 9 and 11 following tumor implantation. Each dose was administered via the tail vein.
Efficacy of Kevetrin 200 mg/kg Days 7, 9, & 11 Against Taxol at 22 mg/kg on Days 7, 9, 11 & 13 in NCI-H1975 Multi-Drug Resistant Human Lung Carcinoma.
The animals were implanted subcutaneously with another multi-drug resistant human lung carcinoma and the compounds were injected IV as per the schedule. […] The tumor growth was delayed about 9 days for Taxol treated animals and about 24 days more than the untreated controls. The results are depicted in FIG. 9.

[2] = tested on: PC-3 human prostate cancer; assay: Xenograft efficacy in nude mice; type: in vivo
Procedure: PC-3 tumor bearing nude mice were treated with either 200 mg/kg Kevetrin IV on Days 7, 9, 11 or 10 mg/kg cisplatin on Day 7.
as §1, §2
(§4) Nude mice were implanted with 5×10^6 tumor cells in a 50:50 mix of RPMI:Matrigel subcutaneously in the right flank of each mouse. […]

[3] = tested on: MDA-MB-231 human breast carcinoma; assay: Xenograft efficacy in nude mice; type: in vivo
Procedure: MDA-MB-231 human breast carcinoma bearing mice were treated with 200 mg/kg Kevetrin IV days 7, 9, and 11 compared to 22 mg/kg Taxol IV Days 7, 9, 11 and 13.
as §1, §2, §4

[4] = Weight loss due to Kevetrin in tumor bearing mice; type: in vivo
Procedure: Animal weights of mice following treatment with either 100 or 200 mg/kg Kevetrin IV on Day 0 are shown.
as §2, §3
When Kevetrin was administered intravenously (IV) to animals bearing tumors, the weight loss due to the administration of the compound was within acceptable limits. […] Both these concentrations may be used to establish the efficacy of Kevetrin.

[5] = tested on: HCT-15 human colon carcinoma with P-glycoprotein mediated resistance; assay: Xenograft efficacy in nude mice; type: in vivo
Procedure: HCT-15 tumor bearing nude mice were treated with either 200 mg/kg Kevetrin IV on Days 7, 9, 11 or 22 mg/kg Taxol on Days 7, 9, 11 and 13 post tumor.

malignant glioma cells = assay: Viability of human tumor cell lines; type: cell-based
From the text: (§5) The results are set forth below.

[6] = tested on: A549 multi-drug resistant human lung carcinoma; assay: Xenograft efficacy in nude mice; type: in vivo
Procedure: Nude mice were implanted with 5×10^6 tumor cells in a 50:50 mix of RPMI:Matrigel subcutaneously in the right flank of each mouse. Dosing began when tumors reached an average volume of 100 mm^3, usually reached by day 14 post implant, and was carried out for 8 days. […]

HT-29 colon carcinoma = assay: Xenograft efficacy in nude mice; type: in vivo
Procedure: HT-29 tumor bearing nude mice were treated with either 200 mg/kg Kevetrin IV or 5-FU on Days 7, 9, and 11.
as §1, §2, §4

[7] = tested on: DU-145, HCT-116, or HT-29 carcinoma cells; assay: Time dependence of Kevetrin cytotoxicity, MTT assay; type: cell-based, human; settings: exposure 5 minutes to 120 hours; DU-145, HCT-116, HT-29
Procedure: Human carcinoma cells were exposed to different concentrations of Kevetrin for 5, 10, 20, 30, or 45 minutes or 1, 2, 6, 24, or 120 hours. Cellular viability expressed as IC50 was plotted verses time of Kevetrin exposure as measured using the MTT assay.
To determine the influence of exposure time on the cytotoxic effects of Kevetrin, DU-145, HCT-116, or HT-29 carcinoma cells were exposed to different concentrations of Kevetrin for 5, 10, 20, 30, or 45 minutes or 1, 2, 6, 24, or 120 hours. […] The time dependence was particularly dramatic for exposure times […]. In contrast, extending the drug exposure time beyond 24 hours had no influence on the cytotoxicity.

[8] = tested on: all tumor cell lines tested; assay: Activity spectra, MTT assay; type: cell-based, human; settings: read-out: average IC50 for all cell lines tested
Procedure: (§6) The indicated values are calculated as follows: log(IC50 individual cell line−IC50 average). Negative values indicate that the cell line is more sensitive than the average, whereas positive values indicate that the cell line is more resistant than the average.
as §6, with “average. […] The activity of Kevetrin was more marked than that of cisplatin toward lung, head and neck, breast, ovary, and colon cell lines.” for “average.”

leukemias = assay: Activity spectra, MTT assay; type: cell-based, human
Procedure: as §6, with “average. […] The activity of Kevetrin was more marked than that of cisplatin toward lung, head and neck, breast, ovary, and colon cell lines.” for “average.”

[9] = tested on: head and neck cancer cell lines; assay: Activity spectra, MTT assay; type: cell-based, human; settings: three head and neck cancer cell lines
Procedure: as §6, with “average. […] The activity of Kevetrin was more marked than that of cisplatin toward lung, head and neck, breast, ovary, and colon cell lines.” for “average.”

DU-145 = assay: Cytotoxicity of Kevetrin, cell viability (MTT); type: cell-based; settings: Homo sapiens; DU-145 prostate carcinoma; continuous exposure for three doubling times; read-out: IC50 Concentration
From the text: as §5

LnCap = assay: Cytotoxicity of Kevetrin, cell viability (MTT); type: cell-based; settings: Homo sapiens; LnCap prostate carcinoma; continuous exposure for three doubling times; read-out: IC50 Concentration
From the text: as §5

HCT-116 = assay: Cytotoxicity of Kevetrin, cell viability (MTT); type: cell-based; settings: Homo sapiens; HCT-116 colon carcinoma; continuous exposure for three doubling times; read-out: IC50 Concentration
From the text: as §5

SCC-61 = assay: Cytotoxicity of Kevetrin, cell viability (MTT); type: cell-based; settings: Homo sapiens; SCC-61 squamous cell carcinoma; continuous exposure for three doubling times; read-out: IC50 Concentration
From the text: as §5

SKOV-3 = assay: Cytotoxicity of Kevetrin, cell viability (MTT); type: cell-based; settings: Homo sapiens, SK-OV-3; SKOV-3 ovarian carcinoma; continuous exposure for three doubling times; read-out: IC50 Concentration
From the text: as §5

MCF-7 = assay: Cytotoxicity of Kevetrin, cell viability (MTT); type: cell-based; settings: Homo sapiens, MCF7; MCF-7 breast carcinoma; continuous exposure for three doubling times; read-out: IC50 Concentration
From the text: as §5

Colo 205 = assay: Cytotoxicity of Kevetrin, cell viability (MTT); type: cell-based; settings: Homo sapiens; Colo 205 colon carcinoma; continuous exposure for three doubling times; read-out: IC50 Concentration
From the text: as §5

SCC 15 = assay: Cytotoxicity of Kevetrin, cell viability (MTT); type: cell-based; settings: Homo sapiens; SCC 15 squamous cell carcinoma; continuous exposure for three doubling times; read-out: IC50 Concentration
From the text: as §5

HT-29 = assay: Cytotoxicity of Kevetrin, cell viability (MTT); type: cell-based; settings: Homo sapiens; HT-29 colon carcinoma; continuous exposure for three doubling times; read-out: IC50 Concentration
From the text: as §5

SW-480 = assay: Cytotoxicity of Kevetrin, cell viability (MTT); type: cell-based; settings: Homo sapiens, SW480; SW-480 colon carcinoma; continuous exposure for three doubling times; read-out: IC50 Concentration
From the text: as §5

[10] = 200 mg/kg Kevetrin IV days 7, 9, 11
[11] = Taxol 22 mg/kg IV days 7, 9, 11, 13

Cl.N#CCCCSC(=N)N [Kevetrin, S-(3-cyanopropyl)isothiourea hydrochloride]
tumor growth delay more than the untreated controls [1, 10]: about 24 days | tumor growth delay more than the untreated control [2, 10]: 34 days | tumor growth delay more than the Cisplatin treated animals ([2]; 200 mg/kg Kevetrin IV days 7, 9, 11 vs 10 mg/kg Cisplatin IP day 7): 8 days | tumor growth delay more than the untreated control [3, 10]: 32 days | tumor growth delay more than the Taxol treated animals ([3]; 200 mg/kg Kevetrin IV days 7, 9, 11 vs 22 mg/kg Taxol IV days 7, 9, 11, 13): 12 days | weight loss of the body weight ([4]; 100 mg/kg intravenously on days 7, 9, and 11, tumor bearing mice): 6.8% | weight loss of the body weight ([4]; 200 mg/kg intravenously on days 7, 9, and 11, tumor bearing mice): 9.3% | tumor growth delay more than the Taxol treated and the untreated control [5, 10]: 15 days | IC50 (malignant glioma cells): ~0.03 µg/mL | tumor growth delay more than the untreated controls [6, 10]: about 26 days | tumor growth delay more than the untreated control (HT-29 colon carcinoma; [10]): 33 days | tumor growth delay more than the 5-FU treated animals (HT-29 colon carcinoma; 200 mg/kg Kevetrin IV days 7, 9, 11 vs 5-FU): 10 days | time dependence of cytotoxicity [7]: Clear time-dependent cytotoxic effects | IC50 ([8]; Homo sapiens): 0.49 µM | activity toward leukemias (leukemias): comparatively limited activity | activity toward head and neck cancer cell lines [9]: showed activity toward all of the cell lines | IC50 (DU-145): 64 µg/mL | IC50 (LnCap): 52 µg/mL | IC50 (HCT-116): 21 µg/mL | IC50 (SCC-61): 64 µg/mL | IC50 (SKOV-3): 58 µg/mL | IC50 (MCF-7): 68 µg/mL | IC50 (Colo 205): 6 µg/mL | IC50 (SCC 15): 12 µg/mL | IC50 (HT-29): 29 µg/mL | IC50 (SW-480): 62 µg/mL

CC(=O)O[C@H]1C(=O)[C@@]2(C)[C@H]([C@H](OC(=O)c3ccccc3)[C@]3(O)C[C@H](OC(=O)[C@H](O)[C@@H](NC(=O)c4ccccc4)c4ccccc4)C(C)=C1C3(C)C)[C@]1(OC(C)=O)CO[C@@H]1C[C@@H]2O [Taxol, reference compound]
effect on the cancer (in words) [1, 11]: limited effect | tumor growth delay [1, 11]: about 9 days | effect on the cancer (in words) [5, 11]: little effect | effect on the cancer (in words) [6, 11]: no effect

N.N.[Cl][Pt][Cl] [cisplatin, reference compound]
IC50 ([8]; MTT assay, continuous exposure for three doubling times): 2.1 µM | activity toward head and neck cancer cell lines [9]: active toward one of the three cell lines
